According to patent US20250163104A1, “MACROCYCLIC IMMUNOMODULATORS” (priority 2021, published 2025):
Where a SMILES comes first, the peptide text is derived from it. Bridges are numbered along the chain shown (N, C = ends). [ ]: non-standard residue; d: D form. The star is where a group is joined. ξ: configuration not given here. Phe(4-COOH) = N[C@@H](Cc1ccc(C(=O)O)cc1)C(=O)O; Asp(3,3-Me2) = CC(C)(C(=O)O)[C@H](N)C(=O)O; Bip = N[C@@H](Cc1ccc(-c2ccccc2)cc1)C(=O)O; Phe(3-Cl) = N[C@@H](Cc1cccc(Cl)c1)C(=O)O; Phe(3-Me) = Cc1cccc(C[C@H](N)C(=O)O)c1; Val(3-OH) = CC(C)(O)[C@H](N)C(=O)O; hArg = N=C(N)NCCCC[C@H](N)C(=O)O; 4Pal = N[C@@H](Cc1ccncc1)C(=O)O; Cha = N[C@@H](CC1CCCCC1)C(=O)O; Cit = NC(=O)NCCC[C@H](N)C(=O)O; Ile(3ξ) = CCC(C)[C@H](N)C(=O)O; dCha = N[C@H](CC1CCCCC1)C(=O)O; Thr(3ξ) = CC(O)[C@H](N)C(=O)O; Carboxymethyl = O=C(O)C*; NMeA = CN[C@@H](C)C(=O)O; Nle = CCCC[C@H](N)C(=O)O; Orn = NCCC[C@H](N)C(=O)O; Pra = C#CC[C@H](N)C(=O)O; Dab = NCC[C@H](N)C(=O)O; Dap = NC[C@H](N)C(=O)O

These compounds were tested against T1, human PD-1 / PD-L1-Ig binding on Jurkat cell line over-expressing human PD-1 (Jurkat-PD-1) (Homo sapiens, UniProt Q15116) (assay: Jurkat-PD-1 Cell Binding High-Content Screening Assay (CBA)). Settings: Jurkat-PD-1 cells, PE-labeled PD-L1-Ig 20 nM final; read-out: Jurkat HPD1_PDL1 IC50.
T1 construct: expressed in transfected cells; host or cells: Jurkat
T1 sequence (Q15116 25-288): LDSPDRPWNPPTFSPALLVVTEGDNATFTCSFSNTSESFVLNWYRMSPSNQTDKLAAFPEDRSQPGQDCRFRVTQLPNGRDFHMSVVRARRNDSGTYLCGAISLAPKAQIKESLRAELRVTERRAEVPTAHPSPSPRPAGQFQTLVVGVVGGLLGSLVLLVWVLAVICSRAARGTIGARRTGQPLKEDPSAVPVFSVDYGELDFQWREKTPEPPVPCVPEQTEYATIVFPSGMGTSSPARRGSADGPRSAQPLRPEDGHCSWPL
Type: cell-based
How it was run: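 Cell-bound PE-labeled PD-L1-Ig (20 nM final, 1 h) measured by high-content imaging after fixation and Hoechst 33342 counterstain. Compound was applied first for 2 h at 37° C. to Jurkat cells over-expressing human PD-1 in DMEM with 10% FCS.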

Row | IC50 | SMILES
1 | 17.7 nM | CCCC[C@@H]1NC(=O)[C@H](CCN)NC(=O)[C@@H](CC(C)C)NC(=O)[C@H](CCCN)NC(=O)[C@H](CCCNC(N)=O)NC(=O)[C@H](Cc2ccc(-c3ccccc3)cc2)NC(=O)[C@H](C(C)C)NC(=O)[C@H](Cc2cccc(C)c2)NC(=O)[C@H](CC(=O)O)NC(=O)[C@H](Cc2ccc(C(=O)O)cc2)NC(=O)[C@H](Cc2ccncc2)NC(=O)CSC[C@@H](C(=O)N[C@@H](C)C(N)=O)NC(=O)[C@H]([C@@H](C)O)NC(=O)[C@H](C(C)C)NC1=O [Compound 1189] ({CH2CO}-[4Pal][Phe(4-COOH)]D[Phe(3-Me)]V[Bip][Cit][Orn][dL][Dab][Nle]VTCA-NH2; thioether N-14)
2 | 13.1 nM | Cc1cccc(C[C@@H]2NC(=O)[C@H](CC(=O)O)NC(=O)[C@H](Cc3ccc(OCC(=O)O)cc3)NC(=O)[C@H](CCCCNC(=N)N)NC(=O)CSC[C@@H](C(=O)N[C@@H](CCCCN)C(=O)N[C@@H](CO)C(N)=O)NC(=O)[C@H](CO)NC(=O)[C@H](C(C)C)NC(=O)[C@H](CC3CCCCC3)NC(=O)[C@H](CCN)NC(=O)[C@@H](CC(C)C)NC(=O)[C@H](CCCN)NC(=O)[C@H](CCCNC(N)=O)NC(=O)[C@H](Cc3ccc(-c4ccccc4)cc3)NC(=O)[C@H](C(C)C)NC2=O)c1 [Compound 2594] ({CH2CO}-[hArg]Y(Carboxymethyl)D[Phe(3-Me)]V[Bip][Cit][Orn][dL][Dab][Cha]VSCKS-NH2; thioether N-14)
3 | 36.7 nM | Cc1cccc(C[C@@H]2NC(=O)[C@H](CC(=O)O)NC(=O)[C@H](Cc3ccc(C(=O)O)cc3)NC(=O)[C@H](Cc3ccncc3)NC(=O)CSC[C@@H](C(=O)N[C@@H](C)C(N)=O)NC(=O)[C@H]([C@@H](C)O)NC(=O)[C@H](C(C)C)NC(=O)[C@H](CC3CCCCC3)NC(=O)[C@H](CCN)NC(=O)[C@@H](CC(C)C)NC(=O)[C@H](CCCN)NC(=O)[C@H](CC3CCCCC3)NC(=O)[C@H](Cc3ccc(-c4ccccc4)cc3)NC(=O)[C@H](C(C)C)NC2=O)c1 [Compound 1621]
4 | 28.6 nM | CC(C)C[C@@H]1NC(=O)[C@H](CCN)NC(=O)[C@@H](CC(C)C)NC(=O)[C@H](CCCN)NC(=O)[C@H](C(C)C)NC(=O)[C@H](Cc2ccc(-c3ccccc3)cc2)NC(=O)[C@H](C(C)C)NC(=O)[C@H](Cc2c[nH]c3ccccc23)NC(=O)[C@H](CC(N)=O)NC(=O)[C@H](Cc2ccc(O)cc2)NC(=O)[C@H](CC(N)=O)NC(=O)CSC[C@@H](C(=O)NCC(N)=O)NC(=O)[C@H](CO)NC(=O)[C@H](C(C)C)NC1=O [Compound 1081] ({CH2CO}-NYNWV[Bip]V[Orn][dL][Dab]LVSCG-NH2; thioether N-14)
5 | 20.3 nM | CC(C)[C@@H]1NC(=O)[C@H](Cc2c[nH]c3ccccc23)NC(=O)[C@H](CC(=O)O)NC(=O)[C@H](Cc2ccncc2)NC(=O)[C@H](Cc2ccc(OCC(=O)O)cc2)NC(=O)CSC[C@@H](C(=O)N[C@@H](C)C(N)=O)NC(=O)[C@H]([C@@H](C)O)NC(=O)[C@H](C(C)C)NC(=O)[C@H](CC2CCCCC2)NC(=O)[C@H](CCN)NC(=O)[C@@H](CC2CCCCC2)NC(=O)[C@H](CCCN)NC(=O)[C@H](CCCNC(N)=O)NC(=O)[C@H](Cc2ccc(-c3ccccc3)cc2)NC1=O [Compound 1645] ({CH2CO}-Y(Carboxymethyl)[4Pal]DWV[Bip][Cit][Orn][dCha][Dab][Cha]VTCA-NH2; thioether N-14)
6 | 42.3 nM | CC[C@H](C)[C@@H]1NC(=O)[C@H](Cc2ccc(-c3ccccc3)cc2)NC(=O)[C@H](C(C)C)NC(=O)[C@H](Cc2c[nH]c3ccccc23)NC(=O)[C@H](CC(=O)O)NC(=O)[C@H](Cc2ccc(O)cc2)NC(=O)[C@H](Cc2ccc(OCC(=O)O)cc2)NC(=O)CSC[C@@H](C(=O)N[C@@H](C)C(N)=O)NC(=O)[C@H]([C@@H](C)O)NC(=O)[C@H](C(C)C)NC(=O)[C@H](CC2CCCCC2)NC(=O)[C@H](CCCNC(=N)N)NC(=O)[C@@H](CC(C)C)NC(=O)[C@H](CCCN)NC1=O [Compound 1146] ({CH2CO}-Y(Carboxymethyl)YDWV[Bip]I[Orn][dL]R[Cha]VTCA-NH2; thioether N-14)
7 | 41.4 nM | CC(C)C[C@@H]1NC(=O)[C@H](Cc2c[nH]c3ccccc23)NC(=O)[C@H](CC(=O)O)NC(=O)[C@H](Cc2ccc(O)cc2)NC(=O)[C@H](Cc2ccccc2)NC(=O)CSC[C@@H](C(=O)N[C@@H](C)C(N)=O)NC(=O)[C@H](CO)NC(=O)[C@H](C(C)C)NC(=O)[C@H](CC(C)C)NC(=O)[C@H](CC(N)=O)NC(=O)[C@@H](C)NC(=O)[C@H](CCN)NC(=O)[C@H](C(C)C)NC(=O)[C@H](Cc2ccc(-c3ccccc3)cc2)NC1=O [Compound 1100] ({CH2CO}-FYDWL[Bip]V[Dab][dA]NLVSCA-NH2; thioether N-14)
8 | 24.7 nM | C#CC[C@H](NC(=O)[C@H](CCC(=O)O)NC(=O)[C@@H]1CSCC(=O)N[C@@H](CN)C(=O)N[C@@H](Cc2ccc(OCC(=O)O)cc2)C(=O)N[C@@H](CC(=O)O)C(=O)N[C@@H](Cc2cccc(C)c2)C(=O)N[C@@H](Cc2ccc(OCC(=O)O)cc2)C(=O)N[C@@H](Cc2ccc(-c3ccccc3)cc2)C(=O)N[C@@H](Cc2ccc(OCC(=O)O)cc2)C(=O)N[C@@H](CCCN)C(=O)N[C@H](CC(C)C)C(=O)N[C@@H](CCN)C(=O)N[C@@H](CC2CCCCC2)C(=O)N[C@@H](C(C)C)C(=O)N[C@@H]([C@@H](C)O)C(=O)N1)C(N)=O [Compound 1803] ({CH2CO}-[Dap]Y(Carboxymethyl)D[Phe(3-Me)]Y(Carboxymethyl)[Bip]Y(Carboxymethyl)[Orn][dL][Dab][Cha]VTCE[Pra]-NH2; thioether N-14)
9 | 5.7 nM | CC[C@H](C)[C@@H]1NC(=O)[C@H](Cc2ccc(-c3ccccc3)cc2)NC(=O)[C@H](C(C)C)NC(=O)[C@H](Cc2cccc(C)c2)NC(=O)[C@H](CC(=O)O)NC(=O)[C@H](Cc2ccc(C(=O)O)cc2)NC(=O)[C@H](CN)NC(=O)CSC[C@@H](C(=O)N[C@@H](C)C(N)=O)NC(=O)[C@H]([C@@H](C)O)NC(=O)[C@H](C(C)C)NC(=O)[C@H](CC2CCCCC2)NC(=O)[C@H](CCN)NC(=O)[C@@H](CC(C)C)NC(=O)[C@H](CCCN)NC1=O [Compound 1204]
10 | 15.9 nM | CCC[C@@H]1NC(=O)[C@H](Cc2ccc(-c3ccccc3)cc2)NC(=O)[C@H](C(C)C)NC(=O)[C@H](Cc2cccc(C)c2)NC(=O)[C@H](CC(=O)O)NC(=O)[C@H](Cc2ccc(C(=O)O)cc2)NC(=O)[C@H](Cc2ccncc2)NC(=O)CSC[C@@H](C(=O)N[C@@H](C)C(N)=O)NC(=O)[C@H]([C@@H](C)O)NC(=O)[C@H](C(C)C)NC(=O)[C@H](CC2CCCCC2)NC(=O)[C@H](CCN)NC(=O)[C@@H](CC(C)C)NC(=O)[C@H](CCCN)NC1=O [Compound 1615]
11 | 10.6 nM | CC(C)C[C@H]1NC(=O)[C@H](CCCN)NC(=O)[C@H](CCCNC(N)=O)NC(=O)[C@H](Cc2ccc(-c3ccccc3)cc2)NC(=O)[C@H](C(C)C)NC(=O)[C@H](Cc2c[nH]c3ccccc23)NC(=O)[C@H](CC(=O)O)NC(=O)[C@H](Cc2ccc(O)cc2)NC(=O)[C@H](CN)NC(=O)CSC[C@@H](C(=O)N[C@@H](C)C(N)=O)NC(=O)[C@H]([C@@H](C)O)NC(=O)[C@H](C(C)C)NC(=O)[C@H](CC2CCCCC2)NC(=O)[C@H](CCN)NC1=O [Compound 1157]
12 | 60.1 nM | CCC(C)[C@@H]1NC(=O)[C@H](Cc2ccc(-c3ccccc3)cc2)NC(=O)[C@H](CC2CCCCC2)NC(=O)[C@H](Cc2c[nH]c3ccccc23)NC(=O)[C@H](CC(=O)O)NC(=O)[C@H](Cc2ccc(OCC(=O)O)cc2)NC(=O)[C@H](C(C)O)NC(=O)CSC[C@@H](C(=O)N[C@@H](CC(N)=O)C(=O)O)NC(=O)[C@H](CO)NC(=O)[C@H](C(C)C)NC(=O)[C@H](CC(C)C)NC(=O)[C@H](CCN)NC(=O)[C@@H](CC(C)C)NC(=O)[C@H](CCCN)NC1=O (stereo partly drawn) [Compound 2575] ({CH2CO}-[Thr(3ξ)]Y(Carboxymethyl)DW[Cha][Bip][Ile(3ξ)][Orn][dL][Dab]LVSCN-OH; thioether N-14)
13 | 19.5 nM | Cc1cccc(C[C@@H]2NC(=O)[C@H](CC(=O)O)NC(=O)[C@H](Cc3ccc(C(=O)O)cc3)NC(=O)[C@H](Cc3ccncc3)NC(=O)CSC[C@@H](C(=O)N[C@@H](CCN)C(N)=O)NC(=O)[C@H](CO)NC(=O)[C@H](C(C)(C)O)NC(=O)[C@H](CC3CCCCC3)NC(=O)[C@H](CCN)NC(=O)[C@@H](CC(C)C)NC(=O)[C@H](C(C)(C)C(=O)O)NC(=O)[C@H](Cc3ccc(OCC(=O)O)cc3)NC(=O)[C@H](Cc3ccc(-c4ccccc4)cc3)NC(=O)[C@H](Cc3ccc(OCC(=O)O)cc3)NC2=O)c1 [Compound 2072] ({CH2CO}-[4Pal][Phe(4-COOH)]D[Phe(3-Me)]Y(Carboxymethyl)[Bip]Y(Carboxymethyl)[Asp(3,3-Me2)][dL][Dab][Cha][Val(3-OH)]SC[Dab]-NH2; thioether N-14)
14 | 481 nM | Cc1cccc(C[C@@H]2NC(=O)[C@H](CC(=O)O)NC(=O)[C@H](Cc3ccc(C(=O)O)cc3)NC(=O)[C@H](C)N(C)C(=O)CSC[C@@H](C(=O)N[C@@H](CCN)C(N)=O)NC(=O)[C@H](CCC(=O)O)NC(=O)[C@H](C(C)(C)O)NC(=O)[C@H](CC3CCCCC3)NC(=O)[C@H](CCN)NC(=O)[C@@H](CC(C)C)NC(=O)[C@H](CCCN)NC(=O)[C@H](Cc3ccc(OCC(=O)O)cc3)NC(=O)[C@H](Cc3ccc(-c4ccccc4)cc3)NC(=O)[C@H](Cc3ccc(OCC(=O)O)cc3)NC2=O)c1 [Compound 2690] ({CH2CO}-[NMeA][Phe(4-COOH)]D[Phe(3-Me)]Y(Carboxymethyl)[Bip]Y(Carboxymethyl)[Orn][dL][Dab][Cha][Val(3-OH)]EC[Dab]-NH2; thioether N-14)
15 | 56.7 nM | CC(C)C[C@H]1NC(=O)[C@H](CCCN)NC(=O)[C@H](CCC(=O)O)NC(=O)[C@H](Cc2ccc(-c3ccccc3)cc2)NC(=O)[C@H](C(C)C)NC(=O)[C@H](Cc2c[nH]c3ccccc23)NC(=O)[C@H](CC(=O)O)NC(=O)[C@H](Cc2ccc(OCC(=O)O)cc2)NC(=O)[C@H](CN)NC(=O)CSC[C@@H](C(=O)N[C@@H](C)C(N)=O)NC(=O)[C@H]([C@@H](C)O)NC(=O)[C@H](C(C)C)NC(=O)[C@H](Cc2cccc(Cl)c2)NC(=O)[C@H](CCN)NC1=O [Compound 1506] ({CH2CO}-[Dap]Y(Carboxymethyl)DWV[Bip]E[Orn][dL][Dab][Phe(3-Cl)]VTCA-NH2; thioether N-14)
